Test results taken from patent publication US9561249B2, “Pharmaceutical formulations of nitrite and uses thereof” (TheraVasc Inc., priority 2013, dated 2017).
Where two headings read alike, the source gives them in different places.

Key:
subjects with PAD [1] = tested on: subjects with PAD
Method: A resting 12-lead ECG printout with the subject in supine position was obtained at the time points listed in Table 1-Schedule of Assessments. All ECGs were assessed by the PI or qualified designee for clinical significance of any abnormalities or changes and documented on the ECG source document. Any clinically significant abnormalities that occured after the first dose of sodium nitrite was recorded as AEs on the eCRF. The 12-lead ECG was obtained immediately following vitals, with the exception of the Visit 1 Randomization day ECG which was collected prior to dosing.

subjects with PAD [2] = tested on: subjects with PAD; remark: listed apart in the source
Method: The primary objective of this early stage clinical study was to evaluate the safety and tolerability of multiple doses of twice daily 40 mg and 80 mg sodium nitrite compared with placebo over a 10 week treatment period. […] Finally, the relationship between doses, plasma concentration of sodium nitrite, and pharmacodynamic effects were characterized and evaluated. In this study, multiple assessments of biological activity and ambulatory function were made during standardized tests of arterial reactivity and claudication-limited exercise. The pharmacodynamic assessments included: brachial artery flow-mediated vasodilation (FMD), six-minute walk test, selected biomarkers of interest, quality of life questionnaires (WIQ & RAND 36).
All doses were given as a twice-daily oral dose for 10 weeks. On the day following the 10 week dosing period and completion of efficacy assessments, subjects in each treatment arm entered a 6 day dose-escalation period (dose-doubling). Subjects in the 40 mg sodium nitrite BID group were dose-escalated to 80 mg sodium nitrite BID for 6 days, and subjects in the 80 mg sodium nitrite BID were dose-escalated to 160 mg sodium nitrite BID for 6-days. Placebo subjects doubled the number of placebo capsules taken BID. All study medication was stopped at the end of the 6-day dose-escalation period.
(§1) The following safety parameters were assessed: medical and medication history, concomitant medication usage, physical examination, vital signs, 12-lead ECG, clinical chemistries, CBC, urinalysis, and adverse events. Urine pregnancy testing was completed for women of child-bearing potential who have not been surgically sterilized. Assessment of acute adverse events (i.e., drop in blood pressure, dizziness) was performed after administration of 1st dose for each dose level of sodium nitrite. Dose-limiting toxicity (DLT) was defined as Grade 3 and clinically significant hematological events, particularly MetHb.
As defined by the International Conference on Harmonisation (ICH), an AE was any untoward medical occurrence in a patient or clinical investigation subject administered an investigational product, whether or not the event was considered related to the investigational product. An AE was therefore any unfavorable and unintended sign (including an abnormal laboratory finding), symptom, or disease (new or exacerbated) temporally associated with the use of the investigational product and was collected starting when IP was administered.

subjects with PAD [3] = details: oral BID for 10 weeks vs placebo
Method: Quality of life was measured by two questionnaires: WIQ and RAND 36. The two questionnaires were administered in the same sequence: WIQ first, followed by the RAND 36. The WIQ was a disease-specific instrument that measures community-based walking. The questionnaire consisted of four subscales (pain severity, distance, speed, and stairs). The WIQ was verbally administered to the subject by the Investigator, or designee. The RAND 36 was an instrument that measured general health issues. Study staff directed subjects to complete the RAND 36 on their own. […] No family members or other individuals were allowed to answer questions or complete the questionnaire for the subject. All questionnaires were completed directly on the written source document pages. The study coordinator reviewed all questionnaires to ensure that there was only one response to each question, each question has been answered and any necessary corrections have been initialed and dated by the Investigator (or designee) or subject, accordingly.

subjects with PAD [4] = details: even at the 160 mg dose escalation
Method: as §1

[5] = 40-mg, Visit 1 (prior to dosing)
[6] = 80-mg, Visit 1 (prior to dosing)
[7] = 80-mg, Visit 8 (after 6-day dose escalation)
[8] = 160-mg, Visit 8 (after 6-day dose escalation)
[9] = Six-Day Dose-Escalation Period Only, 40 mg group (escalated to 80 mg BID)
[10] = Six-Day Dose-Escalation Period Only, 80 mg group (escalated to 160 mg BID)

O=NO [sodium nitrite]
ECG Heart Rate (subjects with PAD [1]; [5]): 71.4 +/− 12.7 beats/minute
QTcB interval (subjects with PAD [1]; [5]): 415.9 ± 49.0 ms
QTcF interval (subjects with PAD [1]; [5]): 404.8 ± 44.9 ms
ECG Heart Rate (subjects with PAD [1]; 40-mg, Visit 5 (Day 28)): 72.2 +/− 14.8 beats/minute
QTcB interval (subjects with PAD [1]; 40-mg, Visit 5 (Day 28)): 430.1 ± 34.8 ms
QTcF interval (subjects with PAD [1]; 40-mg, Visit 5 (Day 28)): 417.7 ± 24.0 ms
ECG Heart Rate (subjects with PAD [1]; [6]): 62.7 +/− 10.7 beats/minute
QTcB interval (subjects with PAD [1]; [6]): 422.3 ± 34.0 ms
QTcF interval (subjects with PAD [1]; [6]): 419.9 ± 30.5 ms
ECG Heart Rate (subjects with PAD [1]; 80-mg, Visit 5 (Day 28)): 65.5 +/− 11.9 beats/minute
QTcB interval (subjects with PAD [1]; 80-mg, Visit 5 (Day 28)): 411.6 ± 49.7 ms
QTcF interval (subjects with PAD [1]; 80-mg, Visit 5 (Day 28)): 406.2 ± 46.2 ms
ECG Heart Rate (subjects with PAD [1]; [7]): 74.3 +/− 10.0 beats/minute
QTcB interval (subjects with PAD [1]; [7]): 423.2 ± 4.03 ms
QTcF interval (subjects with PAD [1]; [7]): 409.5 ± 34.3 ms
ECG Heart Rate (subjects with PAD [1]; [8]): 64.7 +/− 10.0 beats/minute
QTcB interval (subjects with PAD [1]; [8]): 427.7 ± 31.9 ms
QTcF interval (subjects with PAD [1]; [8]): 422.8 ± 27.9 ms
Number of TEAEs by Relationship to Study Drug: Not Related (subjects with PAD [2]; 40 mg BID): 10
Number of TEAEs by Relationship to Study Drug: Possibly Related (subjects with PAD [2]; 40 mg BID): 22
Number of TEAEs by Relationship to Study Drug: Probably Related (subjects with PAD [2]; 40 mg BID): 0
Number of TEAEs by Severity: Mild (subjects with PAD [2]; 40 mg BID): 26
Number of TEAEs by Severity: Moderate (subjects with PAD [2]; 40 mg BID): 6
Number of TEAEs by Relationship to Study Drug: Not Related (subjects with PAD [2]; 80 mg BID): 9
Number of TEAEs by Relationship to Study Drug: Possibly Related (subjects with PAD [2]; 80 mg BID): 24
Number of TEAEs by Relationship to Study Drug: Probably Related (subjects with PAD [2]; 80 mg BID): 6
Number of TEAEs by Severity: Mild (subjects with PAD [2]; 80 mg BID): 31
Number of TEAEs by Severity: Moderate (subjects with PAD [2]; 80 mg BID): 8
Number (%) of Subjects with at least one AE (subjects with PAD [2]; Overall, 40 mg BID): 12(63.2%)
Number (%) of Subjects with at least one TEAE (subjects with PAD [2]; Overall, 40 mg BID): 12(63.2%)
Number of AEs (subjects with PAD [2]; Overall, 40 mg BID): 32
Number of SAEs (subjects with PAD [2]; Overall, 40 mg BID): 0
Number of TEAEs (subjects with PAD [2]; Overall, 40 mg BID): 32
Number (%) of Subjects with at least one AE (subjects with PAD [2]; Overall, 80 mg BID): 14(7738%)
Number (%) of Subjects with at least one TEAE (subjects with PAD [2]; Overall, 80 mg BID): 14(7738%)
Number of AEs (subjects with PAD [2]; Overall, 80 mg BID): 40
Number of SAEs (subjects with PAD [2]; Overall, 80 mg BID): 0
Number of TEAEs (subjects with PAD [2]; Overall, 80 mg BID): 39
Number (5) of Subjects with at least one TEAE (subjects with PAD [2]; [9]): 3(15.8%)
Number of TEAEs (subjects with PAD [2]; [9]): 3
Number (5) of Subjects with at least one TEAE (subjects with PAD [2]; [10]): 7(38.9%)
Number of TEAEs (subjects with PAD [2]; [10]): 11
Severe adverse effects (subjects with PAD [2]; treated groups overall): no severe adverse effects were observed
WIQ assessment in walking distance (subjects with PAD [3]): no change
WIQ stair climbing (subjects with PAD [3]): trend toward improvement
WIQ walking speed (subjects with PAD [3]): trend toward improvement
RAND 36 quality of life assessment (subjects with PAD [3]; sentence names the 40 mg group): trend toward improvement
Methemoglobin levels (subjects with PAD [4]): of no concern
